Assay results: patent publication US6436941B1, “5,6-dihydro-napth[1,2-d]-imidazole, napth[1,2-d]imidazole, and chromane[3,4-d]imidazole derivatives” (Neurogen Corporation, priority 1995, dated 2002)
Where a name gives a salt, the structure may show the parent alone. Read-outs that look alike come from different tables or passages of the source.

Assays:
[1] = target: T1, D2 receptors (Chlorocebus aethiops, UniProt P52702); test: D2 receptor binding assay (3H-YM 09151-2 displacement); design: species or system African Green monkey; conditions: COS cells with recombinant D2 receptor; 0.5 nM 3H-YM 09151-2
T1 construct: expressed in transfected cells; host or cells: COS cells
T1 sequence (P52702 whole entry): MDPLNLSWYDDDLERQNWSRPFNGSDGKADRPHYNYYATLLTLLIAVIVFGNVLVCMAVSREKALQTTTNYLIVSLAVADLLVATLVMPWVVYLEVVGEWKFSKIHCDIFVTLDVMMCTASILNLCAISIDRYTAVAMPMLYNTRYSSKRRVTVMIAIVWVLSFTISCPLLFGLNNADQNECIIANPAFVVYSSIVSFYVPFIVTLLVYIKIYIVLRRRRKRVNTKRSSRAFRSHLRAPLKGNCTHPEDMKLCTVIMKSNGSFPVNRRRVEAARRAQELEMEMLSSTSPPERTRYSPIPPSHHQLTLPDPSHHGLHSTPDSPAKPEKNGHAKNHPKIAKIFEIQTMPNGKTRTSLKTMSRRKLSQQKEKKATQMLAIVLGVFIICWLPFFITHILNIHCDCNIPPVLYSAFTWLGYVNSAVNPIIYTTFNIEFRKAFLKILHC
Method: (§1) Assay for D2 and D3 receptor binding activity
(§2) Pellets of COS cells containing recombinantly produced D2 or D3 receptors from African Green monkey were used for the assays. The sample is homogenized in 100 volumes (w/vol) of 0.05 M Tris HCl buffer at 4° C. and pH 7.4. The sample is then centrifuged at 30,000×g and resuspended and rehomogenized. The sample is then centrifuged as described and the final tissue sample is frozen until use. The tissue is resuspended 1:20 (wt/vol) in 0.05 M Tris HCl buffer containing 100 mM NaCl.
(§3) Incubations are carried out at 48° C. and contain 0.4 ml of tissue sample, 0.5 nM ^3H-YM 09151-2 and the compound of interest in a total incubation of 1.0 ml. Nonspecific binding is defined as that binding found in the presence of 1 μM spiperone; without further additions, nonspecific binding is less than 20% of total binding.

[2] = target: T2, human dopamine D4 receptor subtype (Homo sapiens, UniProt P21917); test: D4 receptor binding assay ([3H]YM-09151-2 displacement)
T2 construct: expressed in transfected cells
T2 sequence (P21917 1-419): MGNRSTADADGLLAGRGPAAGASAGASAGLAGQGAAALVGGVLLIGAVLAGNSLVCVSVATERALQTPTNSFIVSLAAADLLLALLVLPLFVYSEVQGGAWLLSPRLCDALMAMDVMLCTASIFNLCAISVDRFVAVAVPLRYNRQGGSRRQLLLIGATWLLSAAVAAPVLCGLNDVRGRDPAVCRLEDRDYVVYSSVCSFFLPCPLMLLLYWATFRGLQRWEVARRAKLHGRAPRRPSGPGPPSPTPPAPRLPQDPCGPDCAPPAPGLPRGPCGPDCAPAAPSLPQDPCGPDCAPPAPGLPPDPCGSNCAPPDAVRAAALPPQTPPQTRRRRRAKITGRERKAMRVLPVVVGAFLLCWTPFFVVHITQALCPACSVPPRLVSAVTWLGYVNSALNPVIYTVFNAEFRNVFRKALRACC
Method: Assay for D4 receptor binding activity
Clonal cell lines expressing the human dopamine D4 receptor subtype were harvested in PBS and the cells centrifuged and the pellets stored at −80° C. until used in the binding assay. The pellets were resuspended and the cells lysed at 4° C. in 50 mM Tris pH 7.4 buffer containing 120 mM NaCl, 1 mM EDTA and 5 mM MgCl2. The homogenate is centrifuged at 48000×g for 10 minutes at 4° C. The resulting pellet is resuspended in fresh buffer and centrifuged again. After resuspension of the pellet in fresh buffer a […] aliquot is removed for protein determination. […] Incubations were carried out for 60 minutes at 25° C. in the presence of 0.1 nM [^3H] […] The incubation was terminated by rapid filtration through Whatman GF/C filters and rinsed with 2×4 ml washes of chilled 50 mM Tris (pH 7.4) and 120 mM NaCl. Non-specific binding was determined with 1 μM spiperone and radioactivity determined by counting in an LKB beta counter. Binding parameters were determined by non-linear least squares regression analysis, from which the inhibition constant Ki could be calculated for each test compound.

[3] = target: T3, D3 receptors (Chlorocebus aethiops, UniProt P52703); test: D3 receptor binding assay (3H-YM 09151-2 displacement); design: species or system African Green monkey; conditions: COS cells with recombinant D3 receptor; 0.5 nM 3H-YM 09151-2
T3 construct: expressed in transfected cells; host or cells: COS cells
T3 sequence (P52703 whole entry): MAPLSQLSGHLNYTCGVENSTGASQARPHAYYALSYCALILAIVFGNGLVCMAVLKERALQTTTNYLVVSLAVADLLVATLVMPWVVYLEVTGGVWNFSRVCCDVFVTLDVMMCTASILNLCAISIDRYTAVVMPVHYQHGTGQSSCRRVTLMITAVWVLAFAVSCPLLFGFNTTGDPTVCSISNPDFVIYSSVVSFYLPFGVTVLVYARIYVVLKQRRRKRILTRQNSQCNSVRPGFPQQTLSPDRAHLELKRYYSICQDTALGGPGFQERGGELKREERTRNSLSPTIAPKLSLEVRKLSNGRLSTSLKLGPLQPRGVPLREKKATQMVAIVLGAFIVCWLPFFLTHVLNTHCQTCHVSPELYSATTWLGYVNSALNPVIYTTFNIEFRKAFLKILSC
Method: as §1, §2, §3

[4] = clonal cell lines expressing human D4, 0.1 nM [3H]YM-09151-2, 60 minutes at 25° C., read-out: Ki

Row | SMILES | Ki [1] [nM] | Ki [2, 4] [nM] | Ki [3] [nM] | Ki [2] [nM] | melting point
1 | CN(Cc1ccccc1)Cc1nc2c([nH]1)-c1ccccc1OC2 [Compound 3, 1H-{2-(N-benzyl-N-methyl)aminomethyl}chromano[3,4-d]imidazole dihydrochloride] | 220 | 145 | 440 | – | –
2 | CN(Cc1ccccc1)Cc1nc2c([nH]1)-c1ccccc1CC2 [Compound 2, 1H-{2-(N-benzyl-N-methyl)aminomethyl}-(5,6-dihydro)-naphth[1,2-d]imidazole dihydrochloride] | 350 | – | 210 | 81 | –
3 | CN(Cc1ccccc1)Cc1nc2c([nH]1)-c1ccccc1CC2 (as salt: hydrochloride) [Compound 2, 1H-{2-(N-benzyl-N-methyl)aminomethyl}-(5,6-dihydro)-naphth[1,2-d]imidazole dihydrochloride] | – | – | – | – | 225 to 227 °C
4 | c1cnc(N2CCN(Cc3nc4c([nH]3)-c3ccccc3CC4)CC2)nc1 [Compound 1, 1H-2-(1-(4-(2-pyrimidyl)piperazinyl))methyl-(5,6-dihydro)-naphth[1,2-d]imidazole dihydrochloride] | 4200 | 12 | 7800 | – | –
5 | c1cnc(N2CCN(Cc3nc4c([nH]3)-c3ccccc3CC4)CC2)nc1 (as salt: hydrochloride) [Compound 1, 1H-2-(1-(4-(2-pyrimidyl)piperazinyl))methyl-(5,6-dihydro)-naphth[1,2-d]imidazole dihydrochloride] | – | – | – | – | 212 to 214 °C
6 | CN(Cc1ccccc1)Cc1nc2c([nH]1)-c1ccccc1OC2 (as salt: hydrochloride) [Compound 3, 1H-{2-(N-benzyl-N-methyl)aminomethyl}chromano[3,4-d]imidazole dihydrochloride] | – | – | – | – | 198 to 201 °C (dec.)
